Data: patent US20130158098A1, “Alkenyl Substituted Cycloaliphatic Compounds as Chemical Inducers of Proximity” (priority 2010, published 2013)
“Also recorded” adds a separate entry of the source.

Legend:
[1] = Bioavailability of ABA in mice (serum tested by luciferase activation); format: in vivo, mouse
Description: Mice were housed in the Stanford University Research Animal Facility in accordance with federal and institutional guidelines. Mice aged 6 to 8 weeks and weighing about 30 g were orally gavaged with 10 mg of ABA in EtOH/Tween 20/Cremophor (4:3:1; […] or just vehicle with syringes. Blood was collected from the tails of mice at the indicated time after gavage and left on ice for 20 min. After blood was coagulated, the samples were spun down at 1500 g for 20 min and serum was collected for immediate use or snap-frozen and stored at −80° C.
FIG. 5A illustrates the bio-availability of ABA in mice by intraperitoneal injection. With 100 mg ABA/kg mouse body weight, ABA is rapidly available in 30 minutes and still remains in the system after 4 hours. ABA was intraperitoneally injected to mice and serum was collected at indicated time. ABA containing serum was then added as 10% (v/v) of culture media to the CHO cell culture for 24 hours and cells were assayed for luciferase activity. The CHO cells were pre-transfected with the activation and reporter DNA constructs for 24 hours before adding serum. […] With 340 mg ABA/kg mouse body weight, ABA is rapidly available in 1 hour, remains in the system after 8 hours and returns to background level after 24 hours. ABA was orally administrated by gavage to mice and serum was collected at indicated time. ABA containing serum was then added as 10% (v/v) of culture media to the CHO cell culture for 24 hours and cells were assayed for luciferase activity. The CHO cells were pre-transfected with the activation and reporter DNA constructs for 24 hours before adding serum.
In plants, ABA had been reported to be unstable due to active enzymatic degradation (Cutler, A. J. and Krochko, J. E. (1999) Formation and breakdown of ABA. Trends Plant Sci. 4, 472-478). To examine its stability in mammalian cells, ABA was incubated with CHO cells for up to 48 hours, after which the functional ABA concentration was assayed by the ability of the ABA-incubated cell culture medium to induce luciferase production in cells expressing VP16-PYLcs and wild-type Gal4 DBD-ABIcs. […] For potential therapeutic application in humans, the stability of ABA in the serum and its bioavailability in mice was examined (FIG. 16B). The activity of residual ABA in the serum was measured by its ability to induce the transcriptional activation of the luciferase reporter in cells expressing the ABA-activator cassette. The stability of ABA in isolated serum was tested by incubating ABA with fresh human serum or heat-inactivated fetal bovine serum (FBS) for up to 48 hours and then applying the serum as the ABA source to activate luciferase. […] Using this assay, the bioavailability in mice was evaluated. When ABA was injected intraperitoneally, it entered circulation rapidly, and activity was detectable within 30 min (FIG. 33).

[2] = rat; cited from earlier work
[3] = system: ERK1/2 phosphorylation (SOS-PYLcs and myr-ABIcs); experiment: SOS activation: ABA-induced ERK phosphorylation by SOS localization; format: cell-based, human; details: cells expressing SOS-PYLcs and myr-ABIcs; 250 μM ABA
Description: Six-well plates of 293T cells containing 0.5×10^6 cells per well were transfected with 3 μg of total DNA using FuGENE HD (Roche). Cells were transfected with expression plasmids encoding myr-ABI, SOS-PYL, SOS-FKBP, myr-SOS, and an expression vector control, pUC19. ABA (250 μM) was added at 3, 6, 12, and 24 hours before harvesting the cells. Cells were lysed in 1× lysis buffer [50 mM Tris-HCl (pH 7.5), 300 mM NaCl, 1% NP-40, 0.1% SDS, 0.5% sodium deoxycholate, 20 mM NaF, 1 mM Na3VO4, 1 mM phenylmethylsulfonyl fluoride (PMSF), and 1× protease inhibitor mixture (Calbiochem)] for 20 min at 4° C. After centrifugation at 14,000 g for 15 min, proteins were separated on 4 to 12% bis-tris NuPAGE gels (Invitrogen) and transferred to polyvinylidene difluoride membranes. […] Infrared dye 800 and 680 anti-rabbit or anti-mouse secondary antibodies were incubated at room temperature for 1 hour in 10% BSA-PBST and detected with a LI-COR/Odyssey scanner. […]

[4] = intraperitoneal injection, 100 mg ABA/kg

## CC1=CC(=O)CC(C)(C)C1(O)/C=C/C(C)=C/C(=O)O (stereo not shown) [ABA, abscisic acid]
[1]
  oral availability: orally bioavailable; also recorded: orally available
[1]; injected intraperitoneally
  time to detectable activity in circulation: ≤ 30 min
[1]; [4]
  time ABA still remains in the system: ≥ 4 h
  time at which ABA is available in serum: 30 min
[1]; mouse, serum, po, 340 mg/kg, administered orally
  half-life: ~4 h
[1]; oral gavage, 340 mg ABA/kg
  time ABA remains in the system: ≥ 8 h
  time at which ABA is available in serum: 60 min
  time of return to background level: 24 h
[2]
  acute oral median lethal dose (LD50): > 5000 mg/kg
[3]
  phosphorylation of ERK: induced the phosphorylation of ERK
